Source: US20130065818A1, “Arylamide Compounds And Compositions And Uses Thereof” (POLYMEDIX, priority 2006, published 2013)
Values joined by “and” are separate entries in the source; they are usually repeats but may differ in a detail not shown here. Equal values may be shown once.

How the values were obtained:
[1] = NZW rabbit keratitis model, clinical evaluation (Total Ocular Score); details: for Total Ocular Score: Example 12 data display; for Chemosis score / Conj. score / Corneal Edema score / Corneal Infiltrate score / Discharge score / Iritis score: scale 0 = Normal to 3.0 = Severe
Experimental: Fifteen rabbits were received from Myrtles' Rabbitry, Thompson Station, TN. The clinical isolate of fluoroquinolone-resistant, methicillin-resistant (MRSA) Staphylococcus aureus (K950) was subcultured on 5% sheep blood agar and incubated at 37° C. in 6% CO2 overnight. The next morning, the MRSA strain was suspended in sterile trypticase soy broth to a 0.5 McFarland Standard, containing approximately 5×10^8 cfu/ml of bacteria. The absorbance of the suspension was measured at 650 nm using a Beckman DU-70 spectrophotometer. OD readings of 0.07 corresponded to 5×10^8 cfu/ml of bacteria. This concentration was appropriately diluted in sterile trypticase soy broth to provide the inoculum of approximately 1,000 (1.0×10^3) cfu/eye in 25 μl. Colony counts were performed on the inoculum to determine the actual cfu inoculated. Following general anesthesia with ketamine and xylazine and topical anesthesia with proparacaine and prior to bacterial inoculation in the left eyes, 6 mm areas of the corneal epithelia was removed centrally with an Amoils epithelial scrubber. Nothing was done to the right eyes. The 15 rabbits were then inoculated intrastromally in both eyes with 25 μl of the bacterial dilution of approximately 10^3 cfu/eye of the bacteria. The bacterial inoculation of the left eyes was directly under the epithelial defect created by the Amoils epithelial scrubber. The epithelia were removed in the left corneas in order to determine whether this layer of the cornea is a barrier for Oligomer 2 penetration when compared to the right cornea with an intact epithelium. A colony count was done on the inoculum to determine the actual cfu inoculated. The rabbits were immediately treated with analgesia in the form of and intramuscular injection of ketoprofen, 1.5 mg/kg. After 4 hours, the 15 rabbits were divided into 4 treatment groups and one untreated control group sacrificed at the onset of therapy. Both eyes of each rabbit of the treatment groups were treated with one 37 μl drop of the coded solutions or control Saline or 1 drop of vancomycin from its dropper bottle. The Oligomer 2 concentrations were masked and labeled as 1 and 2. The masked concentrations were 1% Oligomer 2 and 0.5% Oligomer 2 but the specific concentrations of solutions were not known to the lab workers who carried out the experiment. The vancomycin and control (Tris-Buffered Saline) were not masked.
Treatment was scheduled for every 15 minutes for 5 hours (21 total doses). However, PMX-1 and PMX-2 were exhausted after the 19th dose. Therefore, the actual treatment was 15 minutes for 4.5 hours (19 total doses). The 3 rabbits in group V were sacrificed 4 hours PI and large 9.5 mm buttons were removed from the corneas. These were placed in 1 ml of PBS and kept on ice. The corneal buttons were homogenized for 25 seconds on ice using the motorized homogenizer. After homogenization, colony counts were done on the homogenates using 5% sheep blood agar plates to determine the amount of bacteria contained in the corneas at the onset of therapy. Following the completion of therapy, the eyes were examined for clinical signs of infection. One hour after the final treatment, the treated rabbits (Groups I-IV) were sacrificed and large 9.5 mm buttons were removed from the corneas. These were placed in 1 ml of PBS and kept on ice. The corneal buttons were homogenized for 25 seconds on ice using the motorized homogenizer. After homogenization, colony counts were performed on the homogenates using 5% sheep blood agar plates to determine the amount of bacteria contained in the corneas after treatment. The next morning, the plates were counted and the number of cfu/eye of Staphylococcus aureus was determined for each cornea.
Fifteen rabbits were received from Myrtles' Rabbitry, Thompson Station, TN.

[2] = system: fluoroquinolone-resistant, methicillin-resistant Staphylococcus aureus (K950); experiment: NZW rabbit keratitis model, corneal colony counts; format: in vivo; details: for Log10 CFU/ml, Mean / Log10 CFU/ml, Median / Log10 CFU/ml / CFU/ml: Example 11; for Log10 CFU/ml, Mean / Log10 CFU/ml, Median: count 3; for Log10 CFU/ml / CFU/ml: individual cornea; for CFU/ml: Inoculum = 1098 CFU/cornea; for Corneal colony count, Mean / Corneal colony count, Median / Corneal colony count, TrMean: N=3; for Corneal colony count, log / Corneal colony count: individual corneas; for Corneal colony count: Inoculum = 1048 cfu/cornea, 1 hour after final drop; for Log10 CFU/ml, group comparison (Duncan Multiple Comparisons Test): P = 0.05, < = significantly fewer colony counts
Source text: One purpose of the following experiments was to compare the efficacy of 1% Oligomer 2, 0.5% Oligomer 2, and 5% vancomycin in the treatment of a fluoroquinolone-resistant, methicillin-resistant Staphylococcus aureus infection in the NZW rabbit keratitis model with or without intact corneal epithelia.
Nothing was done to the right eyes.
One purpose of the following experiments was to compare the efficacy of 0.25% Oligomer 2, with and without 0.005% benzalkonium chloride, and 5% vancomycin in the treatment of a fluoroquinolone-resistant, methicillin-resistant Staphylococcus aureus infection in the NZW rabbit keratitis model with or without intact corneal epithelia. The 0.005% benzalkonium chloride has been added to try to increase the penetration of 0.25% Oligomer 2 through the corneal epithelium.
One purpose of the following experiments was to determine the efficacy of 0.25% Oligomer 4, with and without 200 μM Farnesol, and 200 μM Farnesol in the treatment of a fluoroquinolone-resistant and methicillin-resistant Staphylococcus aureus infection in the NZW rabbit keratitis model with or without intact corneal epithelia. The 200 μM Farnesol has been added to try to increase the efficacy and penetration of 0.25% Oligomer 4 through the corneal epithelium.

[3] = Example 11, Oligomer 4 / Farnesol study, abraded epithelium, individual eye
[4] = Example 11, abraded epithelium, count 3
[5] = Example 12, Ker-3 and Ker-4 combined, abraded epithelium, count 6
[6] = Example 11, Oligomer 4 / Farnesol study, intact epithelium, individual eye
[7] = Example 11, intact epithelium, count 3
[8] = Example 12, Ker-3 and Ker-4 combined, intact epithelium, count 6
[9] = Abraded Epithelium (AE), individual eyes, Ker-1, drops every 15 min, 19 doses
[10] = Intact Epithelium (IE), individual eyes, Ker-1, drops every 15 min, 19 doses

SMILES: CC(C)=CCCC(C)=CCCC(C)=CCO [FARN-AE]
- Chemosis [1, 3]: 2.0 and 1.5 (2×)
- Conj. [1, 3]: 2.0 and 1.5 (2×)
- Corneal Edema [1, 3]: 2.0 and 1.0 (2×)
- Corneal Infiltrate [1, 3]: 1.0 (2×) and 0.5
- Discharge [1, 3]: 2.0 and 1.5 (2×)
- Iritis [1, 3]: 2.0 and 1.5 (2×)
- Total Score [1, 3]: 11.0 and 7.5 and 8.0
- Total Ocular Score, Mean [1, 4]: 8.83
- Total Ocular Score, Median [1, 4]: 8.00
- Total Ocular Score, Mean [1, 5]: 9.083
- Total Ocular Score, Median [1, 5]: 8.500
- Total Ocular Score ([1]; Ker-3, abraded epithelium, individual eye): 11.0 and 8.5 (2×)
- Total Ocular Score ([1]; Ker-4, abraded epithelium, individual eye): 11.0 and 7.5 and 8.0
- Log10 CFU/ml, Mean ([2]; abraded epithelium): 6.8762 Log10 CFU/ml
- Log10 CFU/ml, Median ([2]; abraded epithelium): 6.8893 Log10 CFU/ml
- Log10 CFU/ml ([2]; abraded epithelium): 6.889 Log10 CFU/ml and 6.823 Log10 CFU/ml and 6.916 Log10 CFU/ml
- CFU/ml ([2]; abraded epithelium): 7750000 CFU/ml and 6650000 CFU/ml and 8250000 CFU/ml

SMILES: CC(C)=CCCC(C)=CCCC(C)=CCO [FARN-IE]
- Chemosis [1, 6]: 1.5 (2×) and 1.0
- Conj. [1, 6]: 1.5
- Corneal Edema [1, 6]: 1.0 (2×) and 0.5
- Corneal Infiltrate [1, 6]: 2.0 (2×) and 1.5
- Discharge [1, 6]: 1.5 (2×) and 1.0
- Iritis [1, 6]: 1.5 (2×) and 2.0
- Total Score [1, 6]: 9.0 and 7.0 and 9.5
- Total Ocular Score, Mean [1, 7]: 8.500
- Total Ocular Score, Median [1, 7]: 9.000
- Total Ocular Score, Mean [1, 8]: 9.000
- Total Ocular Score, Median [1, 8]: 9.250
- Total Ocular Score ([1]; Ker-3, intact epithelium, individual eye): 10.0 (2×) and 8.5
- Total Ocular Score ([1]; Ker-4, intact epithelium, individual eye): 9.0 and 7.0 and 9.5
- Log10 CFU/ml, Mean ([2]; intact epithelium): 7.418 Log10 CFU/ml
- Log10 CFU/ml, Median ([2]; intact epithelium): 7.330 Log10 CFU/ml and 7.3304 Log10 CFU/ml
- Log10 CFU/ml ([2]; intact epithelium): 7.655 Log10 CFU/ml and 7.27 Log10 CFU/ml and 7.33 Log10 CFU/ml
- CFU/ml ([2]; intact epithelium): 45200000 CFU/ml and 18600000 CFU/ml and 21400000 CFU/ml

SMILES: CN[C@H](CC(C)C)C(=O)N[C@H]1C(=O)N[C@@H](CC(N)=O)C(=O)N[C@H]2C(=O)N[C@H]3C(=O)N[C@H](C(=O)N[C@H](C(=O)O)c4cc(O)cc(O)c4-c4cc3ccc4O)[C@H](O)c3ccc(c(Cl)c3)Oc3cc2cc(c3O[C@@H]2O[C@H](CO)[C@@H](O)[C@H](O)[C@H]2O[C@H]2C[C@](C)(N)[C@H](O)[C@H](C)O2)Oc2ccc(cc2Cl)[C@H]1O [VAN]
- Chemosis score [1, 9]: 3.0 and 2.5 (2×)
- Conj. score [1, 9]: 3.0 and 2.5 (2×)
- Corneal Edema score [1, 9]: 0.5 and 1.0 (2×)
- Corneal Infiltrate score [1, 9]: 0.5 and 0 (2×)
- Discharge score [1, 9]: 3.0 and 2.0 and 2.5
- Iritis score [1, 9]: 1.0 and 1.5 (2×)
- Total Score ([1]; Abraded Epithelium (AE), individual eyes, Ker-1, drops every 15 min, 19 doses, sum of six signs): 11.0 and 9.5 and 10.0
- Total Ocular Score, Mean ([1]; Abraded Epithelium, N=3): 10.167
- Total Ocular Score, Median ([1]; Abraded Epithelium, N=3): 10.000
- Total Ocular Score, TrMean ([1]; Abraded Epithelium, N=3): 10.167
- Total Ocular Score, group comparison (Duncan Multiple Comparisons Test) ([1]; IE and AE groups, P = 0.05): CON IE = CON AE < VAN AE = PMX-1AE = PMX-2AE = VAN IE < PMX-1 IE = PMX-2 IE
- Chemosis score [1, 10]: 3.0
- Conj. score [1, 10]: 2.5 and 3.0 (2×)
- Corneal Edema score [1, 10]: 1.0
- Corneal Infiltrate score [1, 10]: 0 (2×) and 0.5
- Discharge score [1, 10]: 3.0 (2×) and 2.5
- Iritis score [1, 10]: 2.0 (2×) and 1.0
- Total Score ([1]; Intact Epithelium (IE), individual eyes, Ker-1, drops every 15 min, 19 doses, sum of six signs): 11.5 and 12.0 and 11.0
- Total Ocular Score, Mean ([1]; Intact Epithelium, N=3): 11.500
- Total Ocular Score, Median ([1]; Intact Epithelium, N=3): 11.500
- Total Ocular Score, TrMean ([1]; Intact Epithelium, N=3): 11.500
- Corneal colony count, Mean ([2]; Abraded Epithelium): 2.674 Log10 CFU/ml
- Corneal colony count, Median ([2]; Abraded Epithelium): 2.845 Log10 CFU/ml
- Corneal colony count, TrMean ([2]; Abraded Epithelium): 2.674 Log10 CFU/ml
- Corneal colony count, log ([2]; Abraded Epithelium): 2.301 Log10 CFU/ml and 2.845 Log10 CFU/ml and 2.875 Log10 CFU/ml
- Corneal colony count ([2]; Abraded Epithelium): 200 CFU/ml and 700 CFU/ml and 750 CFU/ml
- Log10 CFU/ml, group comparison (Duncan Multiple Comparisons Test) ([2]; Abraded Epithelium): PMX-2 = VAN = PMX-1 < ONSET = CON
- Corneal colony count, Mean ([2]; Intact Epithelium): 2.7239 Log10 CFU/ml
- Corneal colony count, Median ([2]; Intact Epithelium): 2.7404 Log10 CFU/ml
- Corneal colony count, TrMean ([2]; Intact Epithelium): 2.7239 Log10 CFU/ml
- Corneal colony count, log ([2]; Intact Epithelium): 2.74 Log10 CFU/ml and 2.653 Log10 CFU/ml and 2.778 Log10 CFU/ml
- Corneal colony count ([2]; Intact Epithelium): 550 CFU/ml and 450 CFU/ml and 600 CFU/ml
- Log10 CFU/ml, group comparison (Duncan Multiple Comparisons Test) ([2]; Intact Epithelium): VAN < PMX-1 = PMX-2 = ONSET = CON
